In ChEMBL document CHEMBL1124023, “Analgesic dipeptide derivatives. 4. Linear and cyclic analogues of the analgesic compounds arginyl-2-[(o-nitrophenyl)sulfenyl]tryptophan and lysyl-2-[(o-nitrophenyl)sulfenyl]tryptophan” (1988):

Legend:
Format in all cases: functional
Mus musculus [1] = assay: Analgesic activity (0.5 ug icv) tested after 30min, in mice tail-flick test
Mus musculus [2] = assay: Analgesic activity (0.5 ug icv) tested after 5min, in mice tail-flick test
Mus musculus [3] = assay: Analgesic activity (0.5 ug icv) tested after 60min, in mice tail-flick test
Mus musculus [4] = assay: Analgesic activity (5 ug icv) tested after 30min, in mice tail-flick test
Mus musculus [5] = assay: Analgesic activity (5 ug icv) tested after 5min, in mice tail-flick test
Mus musculus [6] = assay: Analgesic activity (5 ug icv) tested after 60min, in mice tail-flick test
Mus musculus [7] = assay: Analgesic activity (0.5 ug icv) tested after 5 min in mice tail-flick test
Mus musculus [8] = assay: Analgesic activity (2.5 ug icv) tested after 30min, in mice tail-flick test
Mus musculus [9] = assay: Analgesic activity (2.5 ug icv) tested after 5min, in mice tail-flick test
Mus musculus [10] = assay: Analgesic activity (2.5 ug icv) tested after 60min, in mice tail-flick test
Mus musculus [11] = assay: Analgesic activity (0.5 ug icv) tested after 30 min in mice tail-flick test
Mus musculus [12] = assay: Analgesic activity (0.5 ug icv) tested after 60 min in mice tail-flick test
Mus musculus [13] = assay: Analgesic activity (6.25 ug icv) tested after 30min, in mice tail-flick test
Mus musculus [14] = assay: Analgesic activity (6.25 ug icv) tested after 5min, in mice tail-flick test
Mus musculus [15] = assay: Analgesic activity (1 ug icv) tested after 30min, in mice tail-flick test
Mus musculus [16] = assay: Analgesic activity (1 ug icv) tested after 5min, in mice tail-flick test
Mus musculus [17] = assay: Analgesic activity (1 ug icv) tested after 60min, in mice tail-flick test
Mus musculus [18] = assay: Analgesic activity (3.125 ug icv) tested after 60min, in mice tail-flick test
Mus musculus [19] = assay: Analgesic activity (6.25 ug icv) tested after 60min, in mice tail-flick test
Mus musculus [20] = assay: Analgesic activity (3.125 ug icv) tested after 30min, in mice tail-flick test
Mus musculus [21] = assay: Analgesic activity (3.125 ug icv) tested after 5min, in mice tail-flick test
Mus musculus [22] = assay: Analgesic activity (12.5 ug icv) tested after 30min, in mice tail-flick test
Mus musculus [23] = assay: Analgesic activity (12.5 ug icv) tested after 5min, in mice tail-flick test
Mus musculus [24] = assay: Analgesic activity (12.5 ug icv) tested after 60min, in mice tail-flick test
Mus musculus [25] = assay: Analgesic activity (25 ug icv) tested after 30min, in mice tail-flick test
Mus musculus [26] = assay: Analgesic activity (25 ug icv) tested after 5min, in mice tail-flick test
Mus musculus [27] = assay: Analgesic activity (25 ug icv) tested after 60min, in mice tail-flick test

Compound	Change in reaction time (Mus musculus [1])	Change in reaction time (Mus musculus [2])	Change in reaction time (Mus musculus [3])	Change in reaction time (Mus musculus [8])	Change in reaction time (Mus musculus [9])	Change in reaction time (Mus musculus [10])	also measured
COC(=O)[C@H](Cc1cn(Sc2ccccc2[N+](=O)[O-])c2ccccc12)NC(=O)[C@@H](N)CCCN=C(N)N	52%	120%	22%	–	–	–	–
COC(=O)[C@H](Cc1cn(Sc2ccccc2[N+](=O)[O-])c2ccccc12)NC(=O)[C@@H](N)CCCCN	50%	98%	20%	–	–	–	–
COC(=O)[C@H](CCCCN)NC(=O)[C@@H](N)Cc1cn(Sc2ccccc2[N+](=O)[O-])c2ccccc12	76%	138%	33%	–	–	–	–
COC(=O)[C@@H](CCCN=C(N)N)NC(=O)[C@@H](N)Cc1cn(Sc2ccccc2[N+](=O)[O-])c2ccccc12.Cl	23%	–	9%	18%	20%	9%	Change in reaction time (Mus musculus [4]): 88%; Change in reaction time (Mus musculus [5]): 97%; Change in reaction time (Mus musculus [6]): 30%; Change in reaction time (Mus musculus [7]): 18%
COC(=O)[C@H](CCCN=C(N)N)NC(=O)[C@@H](N)Cc1cn(Sc2ccccc2[N+](=O)[O-])c2ccccc12.Cl	–	–	–	–	–	–	Change in reaction time (Mus musculus [11]): 63%; Change in reaction time (Mus musculus [7]): 113%; Change in reaction time (Mus musculus [12]): 20%
COC(=O)[C@H](CCCN=C(N)N)NC(=O)[C@H](N)Cc1cn(Sc2ccccc2[N+](=O)[O-])c2ccccc12.Cl	26%	30%	23%	41%	125%	20%	–
COC(=O)[C@@H](CCCN=C(N)N)NC(=O)[C@H](N)Cc1cn(Sc2ccccc2[N+](=O)[O-])c2ccccc12.Cl	10%	6%	-2%	3%	16%	-2%	Change in reaction time (Mus musculus [4]): 42%; Change in reaction time (Mus musculus [5]): 34%; Change in reaction time (Mus musculus [6]): 29%
NC(N)=NCCC[C@@H](NC(=O)[C@H](N)Cc1ccc(O)cc1)C(=O)O	–	–	–	–	–	–	Change in reaction time (Mus musculus [13]): 68%; Change in reaction time (Mus musculus [14]): 102%; Change in reaction time (Mus musculus [15]): 5%; Change in reaction time (Mus musculus [16]): 10%; Change in reaction time (Mus musculus [17]): -2%; Change in reaction time (Mus musculus [18]): 15%; Change in reaction time (Mus musculus [19]): 10%; Change in reaction time (Mus musculus [20]): 34%; Change in reaction time (Mus musculus [21]): 79%
Cl.N=C(N)NCCCC1NC(=O)[C@H](Cc2cn(Sc3ccccc3[N+](=O)[O-])c3ccccc23)NC1=O (stereo in doubt)	23%	35%	15%	–	–	–	–
NC(N)=NCCC[C@H](NC(=O)[C@@H](N)Cc1ccc(O)cc1)C(=O)O [KYOTORPHIN]	–	–	–	–	–	–	Change in reaction time (Mus musculus [22]): 1%; Change in reaction time (Mus musculus [23]): 18%; Change in reaction time (Mus musculus [24]): 6%; Change in reaction time (Mus musculus [25]): 31%; Change in reaction time (Mus musculus [26]): 98%; Change in reaction time (Mus musculus [27]): 10%
